Holding throughout (format): cell-based, human
Experiment [1] concerns hEAAT2 promoter. The experiment is described as follows: hEAAT2 promoter luciferase assay of agents in PHFA (FIG. 10). The following applies: PHFA passage #3; 10 μM. Here is the method:
(§1) FIG. 10. Effect of various agents on hEAAT2 promoter activity on primary human fetal astrocytes (PHFA). A: ceftriaxone; B: amoxicillin; C: chloramphenicol; D: thiamphenicol; E: vancomycin; F: glycine; G: glutamate; H: DMSO; I: dibutyryl cAMP. PHFA (passage #3) were seeded at 1×10^5 cells/35-mm plate. Twenty-four h later cells were untreated (CON) or received the indicated compound at a final concentration of 10 μM. Forty-eight h later the cells were transfected with a FL pGL3/EAAT2 luciferase reporter construct (5 μg) plus a pSVβGalactosidase construct (1 μg) using the calcium phosphate precipitation method (Su et al. 2003, Proc. Natl. Acad. Sci. USA 100:1955-1960). After an additional 48 h, cell lysates were prepared and luciferase activity was determined using the Luciferase Assay System Kit (Promega, E1501) and luminescence determined using a luminometer (Turner Designs, TD20/20) (Su et al. 2003, Proc. Natl. Acad. Sci. USA 100:1955-1960). Data presented are the average of 3 independent plates±S.D. Qualitatively similar results were obtained in 2 additional experiments.
as §1, with “Identification of Agents that Modulate hEAAT2 Promoter Activity. FIGS. 10-12 show the effects” for “FIG. 10. Effect”, “in PHFA (FIG. 10), PHFA-Im (FIG. 11) and H4 glioma (FIG. 12) cells. In the studies shown in FIG. 10,” for “on primary human fetal astrocytes (PHFA). A: ceftriaxone; B: amoxicillin; C: chloramphenicol; D: thiamphenicol; E: vancomycin; F: glycine; G: glutamate; H: DMSO; I: dibutyryl cAMP.”

For the next experiment, the system named is hEAAT2 transcription. The experiment is described as follows: Nuclear run-on assay of hEAAT2 transcription in PHFA. The following applies: 7-day treatment. The protocol:
FIG. 4A-D. Effect of modulators of hEAAT2 activity on hEAAT2 expression and hEAAT2 promoter activity in PHFA. A. A Northern analysis of hEAAT2 and GAPDH mRNA expression following treatment with EGF (30 ng/ml), TGF-α (30 ng/ml), dbcAMP (200 μM, bromo-cAMP (100 μM) or TNF-α (200 U/ml) for 7 days. B. Nuclear run-on assays determining the relative rates of hEAAT2 and GAPDH transcription as a function of 7-day treatment with the same concentrations of the indicated agents. C. A time course of mRNA expression of hEAAT2 and GAPDH following treatment with EGF, bromo-cAMP or TNF-α (same concentrations as in A.). D. Fold luciferase activity in PHFA transfected with flhEAAT2Prom-luc or various deletion mutants of hEAAT2 and non-transfected controls treated with the indicated compounds for four days.
Primer Extension Analysis and Nuclear Run-on Assays. Primer extension assays were performed as described (Su et al., 2000, Oncogene 19(30):3411-3421). A primer with the sequence 5′-[…]-3′ (SEQ ID NO:6) complementary to the 5′ UTR of the hEAAT2 cDNA was used for this assay. Nuclear run-on assays were performed as described (Su et al., 1997, Proc Natl Acad Sci USA 94(17):9125-9130).
To examine whether stimulation of hEAAT2 expression involves transcriptional changes, nuclear run-on assays were performed.

Experiment [2] deals with hEAAT2 promoter. Briefly: hEAAT2 promoter luciferase assay of agents in H4 glioma cells (FIG. 12). The following applies: H4 malignant glioma cells; 10 μM. Here is the method:
as §1, with “12.” for “10.”, “in H4” for “on primary”, “malignant glioma cells.” for “fetal astrocytes (PHFA).”, “H4 is a rare clone of malignant glioma cells that support hEAAT2 promoter activity. H4 cells” for “PHFA (passage #3)”, “5×10^4” for “1×10^5”
as §1, with “H4, the third cell line examined, is a rare clone” for “FIG. 10. Effect”, “malignant glioma cells that support” for “various agents on”, “activity. In the studies shown in FIG. 12, H4 cells” for “activity on primary human fetal astrocytes (PHFA). A: ceftriaxone; B: amoxicillin; C: chloramphenicol; D: thiamphenicol; E: vancomycin; F: glycine; G: glutamate; H: DMSO; I: dibutyryl cAMP. PHFA (passage #3)”, “5×10^4” for “1×10^5”

Take `CCCC(=O)Nc1ncnc2c1ncn2[C@@H]1O[C@@H]2COP(=O)(O)O[C@H]2[C@H]1OC(=O)CCC` [dbcAMP, dibutyryl cyclic AMP]: the hEAAT2 promoter activity entry with hEAAT2 promoter [1] and with hEAAT2 promoter [2] was “potent stimulators” throughout. In addition, the “relative rate of transcription of hEAAT2 RNA compared with GAPDH” value with hEAAT2 transcription is listed as “elevated”.

The record behind these values is US20060127980A1, “Human excitatory amino acid transporter-2 gene promoter and uses thereof” (priority 2003, published 2006).
